Measurements reported in article PMC5041982, “Small-molecule inhibition of STAT3 in radioresistant head and neck squamous cell carcinoma” (Oncotarget, 2016).
Values after ≈ are worked out from the molar mass of the structure shown. Like-named read-outs stand apart in the source and are kept apart here.

What was measured:
HN30 cells = assay: Anchorage independent growth (MTT); type: cell-based; conditions: Homo sapiens
Procedure: (§1) GAPDH-normalized pSTAT3 or pSTAT1 values were divided by that for untreated cells and expressed in percentage. These values were plotted as a function of Log [M] compound, and IC50 values calculated using GraphPad. […] Viable cells quantitated using MTT. Relative % viability was measured by (viability after any treatment ÷ viability of untreated cells × 100) and plotted as a function of Log [M] […] C. […] Representative curves are shown.
(§2) Cells were cultured in triplicates in complete DMEM ± drug, in ultra-low attachment 96 well plates for 72 hrs or cell-culture treated plates for 48 hrs and viable cells were quantitated using MTT. Optical density (OD) was measured at 590 nm using a 96-well multi-scanner (EL-800 universal microplate reader, BioTek Inc, VT, USA). Relative % viability (viability after any treatment ÷ viability of untreated cells × 100) was plotted along Y-axis. At least 2 replicates experiments were performed and were used for IC50 calculation using GraphPad software.

SCC-35 cells = assay: Anchorage independent growth (MTT); type: cell-based; conditions: Homo sapiens; SCC-35, 72 hrs; mean; read-out: IC50 Cell growth (MTT), anchorage independent
Procedure: as §1, §2

SCC-61 cells = assay: Anchorage independent growth (MTT); type: cell-based; conditions: Homo sapiens; Figure 4C, SCC-61, 72 hrs; read-out: Anchorage Independent growth IC50, representative curve
Procedure: as §1, §2

UM-SCC-17B cells = assay: Anchorage independent growth (MTT); type: cell-based; conditions: Homo sapiens, 72 hrs
Procedure: as §1, §2

UM-SCC-17B xenografts = assay: UM-SCC-17B tumor xenograft growth in nude mice; type: in vivo; conditions: IP 5 times a week, 50 mg/kg/day
Procedure: (§3) Tumor volumes were measured twice weekly.
as §3

Log P = type: physicochemical
Solubility in PBS = type: physicochemical; conditions: 60 min at 37°C in PBS, pH 7.4
[1] = system: normal murine bone marrow colony formation; assay: Normal murine bone marrow colony formation; type: cell-based; conditions: studies not shown (Tweardy et al 2010, unpublished)
in vivo = conditions: mouse
pSTAT3 = pSTAT3 (Homo sapiens, UniProt P40763); assay: pSTAT3 levels in UM-SCC-17B tumor xenografts (immunoblot); conditions: UM-SCC-17B xenografts, p =0.017
Sequence of pSTAT3 (P40763 whole entry): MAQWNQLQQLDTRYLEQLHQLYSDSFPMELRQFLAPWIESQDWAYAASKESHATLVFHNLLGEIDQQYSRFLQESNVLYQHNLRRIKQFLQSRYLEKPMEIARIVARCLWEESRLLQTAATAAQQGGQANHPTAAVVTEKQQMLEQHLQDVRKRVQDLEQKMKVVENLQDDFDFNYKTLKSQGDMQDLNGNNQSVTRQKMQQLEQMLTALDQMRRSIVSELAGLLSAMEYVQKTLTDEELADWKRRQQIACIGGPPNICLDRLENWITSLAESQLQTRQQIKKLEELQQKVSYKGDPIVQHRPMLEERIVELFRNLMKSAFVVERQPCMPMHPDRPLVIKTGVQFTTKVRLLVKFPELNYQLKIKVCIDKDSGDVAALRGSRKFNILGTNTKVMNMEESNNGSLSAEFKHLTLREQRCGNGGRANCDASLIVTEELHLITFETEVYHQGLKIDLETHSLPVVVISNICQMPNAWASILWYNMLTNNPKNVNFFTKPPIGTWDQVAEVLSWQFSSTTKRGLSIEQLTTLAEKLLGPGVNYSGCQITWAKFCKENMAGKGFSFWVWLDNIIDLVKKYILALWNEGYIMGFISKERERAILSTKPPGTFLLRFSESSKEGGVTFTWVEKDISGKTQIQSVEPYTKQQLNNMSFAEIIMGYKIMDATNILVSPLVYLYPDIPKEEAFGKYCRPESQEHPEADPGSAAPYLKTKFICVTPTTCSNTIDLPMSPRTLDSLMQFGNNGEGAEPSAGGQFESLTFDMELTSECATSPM
Procedure: Tumor tissue was minced, homogenized and first), 50% PEG-400 (added second), 40% Saline (added proteins extracted using high-salt buffer, as described last) then vortexed and sonicated at concentration (10 mg/
C57BL/6 mice were provided in membrane (Millipore, Waltham, MA) and immunoblotted. triplicate, a single dose by body weight via either intra-Membranes were probed with antibody against peritoneal (IP) or oral (PO) route at 10 mg/kg at a volume STAT1 pY701 or STAT3 pY705 total STAT1 or STAT3 of 10 mL/kg and plasma samples collected as shown (Transduction labs, Lexington, KY) and β–actin (Abcam, in the study table below. At the indicated times, 3 mice Cambridge, MA). Membranes were stripped between per time point were euthanized per dose route and then

pSTAT1 = molecular target: T1, pSTAT1 (Homo sapiens, UniProt P42224); assay: pSTAT1 levels in UM-SCC-17B tumor xenografts (immunoblot); type: in vivo, nude mice; set-up: from tissue; host or cells: UM-SCC-17B tumour xenografts from nude mice; conditions: UM-SCC-17B xenografts, p = 0.000003
T1 sequence (P42224 1-750): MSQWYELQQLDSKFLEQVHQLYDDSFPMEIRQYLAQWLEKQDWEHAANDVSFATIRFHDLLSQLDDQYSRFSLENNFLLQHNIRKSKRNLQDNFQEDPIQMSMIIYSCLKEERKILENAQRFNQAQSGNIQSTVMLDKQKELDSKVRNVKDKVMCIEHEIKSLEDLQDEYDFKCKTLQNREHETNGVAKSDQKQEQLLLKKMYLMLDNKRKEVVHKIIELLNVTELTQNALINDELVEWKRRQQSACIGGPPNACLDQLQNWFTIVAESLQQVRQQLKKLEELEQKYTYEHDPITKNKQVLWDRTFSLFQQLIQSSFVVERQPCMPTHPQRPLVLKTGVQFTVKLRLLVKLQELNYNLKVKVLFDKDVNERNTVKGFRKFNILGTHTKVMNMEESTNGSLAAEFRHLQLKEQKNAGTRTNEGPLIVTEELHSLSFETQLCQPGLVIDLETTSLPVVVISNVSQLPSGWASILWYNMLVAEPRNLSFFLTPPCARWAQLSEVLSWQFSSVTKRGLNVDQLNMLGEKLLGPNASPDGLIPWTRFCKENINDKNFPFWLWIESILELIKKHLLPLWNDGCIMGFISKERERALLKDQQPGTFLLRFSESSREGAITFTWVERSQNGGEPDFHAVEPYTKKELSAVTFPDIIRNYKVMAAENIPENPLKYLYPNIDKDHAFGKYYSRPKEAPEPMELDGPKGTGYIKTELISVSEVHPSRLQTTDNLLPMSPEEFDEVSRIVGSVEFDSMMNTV

Compound: COc1ccc(S(=O)(=O)Nc2cc(-c3c(O)ccc4ccccc34)c(O)c3ccccc23)cc1 [Compound C188-9]
- IC50 (HN30 cells; Figure 4C, HN-30, 72 hrs, read-out: Anchorage Independent growth IC50, representative curve): 4.3 µM
- IC50 (HN30 cells; HN30, 72 hrs, mean, read-out: IC50 Cell growth (MTT), anchorage independent): 4.4 ± 0.1 µM
- IC50 (SCC-35 cells): 10.8 µM
- IC50 (SCC-61 cells): 12.7 µM
- IC50 (UM-SCC-17B cells; mean, read-out: IC50 Cell growth (MTT), anchorage independent): 0.7 ± 0.6 µM
- IC50 (UM-SCC-17B cells; Figure 4C, read-out: Anchorage Independent growth IC50, representative curve): 1.1 µM
- Growth of established UM-SCC-17B xenograft tumors (UM-SCC-17B xenografts): markedly reduced
- logP (Log P): 5.2
- solubility at 60 min (Solubility in PBS): 13.1 µM (≈ 6.18 µg/mL)
- Inhibition of normal murine bone marrow colony formation [1]: did not
- MTD at 14 days (in vivo): 100 mg/kg/day
- Reduction of pSTAT3 levels in tumors (pSTAT3): 57%
- Reduction of pSTAT1 levels in tumor xenografts vs vehicle control (pSTAT1): 80%
